Results on 4 compounds are retold here after patent US12023323B2, “Carbohydrate-binding small molecules with antiviral activity” (priority 2018, dated 2024).

Like-named read-outs stand apart in the source and are kept apart here. Where only a bound is given, the exact number is not on record here.

The test system of data set [1] is ZIKV GFP RVPs.
For data set [2] the following is noted: Table 1, anti-ZIKV assay.
Data set [3] concerns ZIKV GFP RVPs. As to the kind of experiment: microbe, parasite or virus in culture. The settings on record: Zika virus, Vero.
A short description of data set [4]: 1H NMR titration with octyloxy pyranoside β-Gal. In kind it is binding. Particulars: NMR titrations.
A short description of data set [5]: 1H NMR titration with octyloxy pyranoside α-Man. The format is binding. The settings on record: NMR titrations in CD2Cl2 at 298 K, 1:1 binding.
Data set [6] in a line: Selectivity across the five octyloxy pyranosides from NMR titrations. The format is binding.
The nature of data set [7]: 1H NMR titration with octyloxy pyranoside β-Glc. The format is binding.
Data set [8] in a line: Cellular toxicity, CellTiter-Glo, Vero cells. The settings on record: African green monkey.
In the next data set the test system is Vero cells. As to the kind of experiment: Cellular toxicity, CellTiter-Glo, Vero cells. A general note: Cellular ATP, detected with luciferase, serves as a proxy for viable cell number.
Data set [9] can be described thus: 1H NMR titration with octyloxy pyranoside α-Glc. In kind it is binding.
Data set [10] can be described thus: 1H NMR titration with octyloxy pyranoside β-Man. The format is binding. The settings on record: NMR titrations in CD2Cl2 at 298 K, 1:1 binding.
Data set [11] can be described thus: NMR dilution experiments for dimerization. In kind it is physicochemical. The settings on record: dilution experiments in CD2Cl2.
For a further data set, the system named is N154Q mutant ZIKV RVPs. In kind it is cell-based, Zika virus. The settings on record: Vero cells.
Setting [12] is: Table 3, Vero cells, ZIKV RVPs, average of at least two independent measurements.

As for `O=C(NCc1cc(CNC(=O)c2ccco2)cc(-c2cc(CNC(=O)c3ccco3)cc(CNC(=O)c3ccco3)c2)c1)c1ccco1` [SCR007, N,N′,N′″-([1,1′-biphenyl]-3,3′,5,5′-tetrayltetrakis(methylene))tetrakis(furan-2-carboxamide)], in the data set on ZIKV GFP RVPs [1], the “anti-ZIKV activity in words” value was “not effective”. Besides, the “solubility (words printed in the IC50 column)” value in data set [2] is on record as “not soluble”.
A word on the IC50: it is the point on the concentration scale where inhibition reaches its midpoint. The CC50 is the concentration at which the toxic effect on the cells reaches its halfway point. Regarding `Oc1ccccc1CNCc1cc(CNCc2ccccc2O)cc(-c2cc(CNCc3ccccc3O)cc(CNCc3ccccc3O)c2)c1` [SCR022, 2,2′,2″,2′″-((([1,1′-biphenyl]-3,3′,5,5′-tetrayltetrakis(methylene))tetrakis(azanediyl))tetrakis(methylene))tetraphenol], the “therapeutic index (TC50/IC50)” value with ZIKV GFP RVPs [1] (Table 3, Vero cells) amounted to 2. Further, the “anti-ZIKV activity in words” value in the data set on ZIKV GFP RVPs [1] (Vero cells, ZIKV RVPs) is “potent anti-ZIKV activity”. Further, the IC50 with ZIKV GFP RVPs [3] (setting [12]) is 2.5 ± 0.6 µM; in the data set on ZIKV GFP RVPs [3] (Table 3 study, Vero cells, ZIKV RVPs, unit μm [sic]), below 5 µM; in the data set on ZIKV GFP RVPs [3] (read-out: IC50 (strong antiviral activity), Vero cells, ZIKV RVPs) it was below 5 µM. Besides, the “binding to β-Gal in words” value in [4] is “no substantial binding”. In addition, the “Ka (M^−1) with α-Man” value in data set [5] was 280 M⁻¹. For the same compound, the “glycan preference in words” value in data set [6] (five octyloxy pyranosides, CD2Cl2, 298 K) was “prefer β-Glc”. The “affinity for β-Glc over α-Man” value in data set [6] (times) is listed as 290. Moreover, the “K2 (2:1 SCR·glycan association constant) with β-Glc” value in [7] (2:1 SCR·glycan complexes) is 690 M⁻¹. Further, the “cumulative association constant β with β-Glc” value in data set [7] (2:1 SCR·glycan complexes) is recorded as 8.1×10^4 M^−2. Further, the “K1 (1:1 association constant) with β-Glc” value in data set [7] (CD2Cl2, 298 K) stood at 120 M⁻¹. For the same compound, the “affinity for β-Glc relative to SCR001” value in [7] (fold / ratio SCR:SCR001) is recorded as 62. Moreover, in [8], the CC50 at 72 h turned out to be 4.6 ± 1.1 µM. In addition, the “cellular toxicity in words” value in the data set on Vero cells is reported as “toxic to Vero cells”. For the same compound, in data set [9] (NMR titrations), the “binding to α-Glc in words” value was “no substantial binding”.
As for `Oc1cccc(CNCc2cc(CNCc3cccc(O)c3)cc(-c3cc(CNCc4cccc(O)c4)cc(CNCc4cccc(O)c4)c3)c2)c1` [SCR023, 3,3′,3″,3′″-((([1,1′-biphenyl]-3,3′,5,5′-tetrayltetrakis(methylene))tetrakis(azanediyl))tetrakis(methylene))tetraphenol], the “IC50 relative to regioisomer” value with ZIKV GFP RVPs [1] (SCR023 vs SCR022, SCR017 vs SCR001) is “at least four times higher”. Moreover, in the data set on ZIKV GFP RVPs [1] (Table 3, Vero cells), the “therapeutic index (TC50/IC50)” value was found to be 20. The IC50 is 10.6 ± 5.9 µM in the data set with ZIKV GFP RVPs [1] (setting [12]) and below 20 µM in the data set with ZIKV GFP RVPs [3] (setting [12]). The “anti-ZIKV activity in words” value in the data set with ZIKV GFP RVPs [1] (Vero cells, ZIKV RVPs) is “weaker inhibition”. The “Ka (M^−1) with α-Man” value in data set [5] was found to be 150 M⁻¹. Further, in data set [10], the “Ka (M^−1) with β-Man” value worked out at 250 M⁻¹. Further, the CC50 at 72 h in data set [8] turned out to be 207 ± 79 µM. The dimerization in words entry in data set [11] is reported as “Dimerization was observed”. The “Ka with α-Glc” value in data set [9] (CD2Cl2, 298 K, 1:1 binding) was 310 M⁻¹.
Consider `Cc1ccc(C(=O)Nc2ccc(S(=O)(=O)O)c3cc(S(=O)(=O)O)cc(S(=O)(=O)O)c23)cc1NC(=O)c1cccc(NC(=O)Nc2cccc(C(=O)Nc3cc(C(=O)Nc4ccc(S(=O)(=O)O)c5cc(S(=O)(=O)O)cc(S(=O)(=O)O)c45)ccc3C)c2)c1` [Suramin, reference compound], for which the “anti-ZIKV activity in words” value with ZIKV GFP RVPs [1] (Vero cells, ZIKV RVPs) was “dose dependent inhibition of ZIKV infection”. This compound returned an IC50 with ZIKV GFP RVPs [3] (Table 1, Vero cells, compounds 30 min before ZIKV RVPs, GFP+ cells 72 h postinfection) of 44 ± 4.19 µM. In addition, the “inhibition of N154Q mutant RVPs in words” value in the data set on N154Q mutant ZIKV RVPs is recorded as “inhibited”. The compound further showed a CC50 at 72 h in [8] above 200 µM.
